Measurements: patent EP4737445A1, “NOVEL SATURATED HETEROCYCLE-SUBSTITUTED HETEROARYL-CARBONOHYDRAZONOYL DICYANIDE COMPOUND AND USE THEREOF” (Korea Institute of Science and Technology, priority 2023, dated 2025)

Legend:
[1] = Liver microsomal stability, rat; type: in vitro ADME; details: 1 µM compound; 0.5 mg/mL microsomes; NADPH; 30 minutes at 37°C
Description: Liver microsomal stability by the compounds prepared according to Examples 1 to 46 was confirmed. Specifically, four types of liver microsomes (human, dog, rat, and mouse each at 0.5 mg/mL), 0.1 M phosphate buffer solution (pH 7.4), and the compounds at 1 µM concentration were added and pre-incubated at 37°C for 5 minutes, and then NADPH generation system solution was added and incubated at 37°C for an additional 30 minutes. Thereafter, an acetonitrile solution containing an internal standard (chloropropamide) was added to terminate the reaction, and after centrifugation for 5 minutes (14,000 rpm, 4°C), the supernatant was injected into an LC-MS/MS system to analyze the substrate drug, thereby evaluating the metabolic stability of 8 compounds.
The amount of remaining substrate through the reaction was analyzed using a Shimadzu Nexera XR system and TSQ vantage (Thermo). A Kinetex XB-C18 (2.1 × 100 mm, 2.6 µm, particle size; Phenomenex, USA) was used as the HPLC column, and (A) distilled water containing 0.1% formic acid and (B) acetonitrile containing 0.1% formic acid were used as mobile phases. Analyst software (version 1.6.3) and Xcalibur (version 1.6.1) were used for data analysis. The calculated results are shown in Table 5 below: Liver microsomal stability data of novel compounds from […] (human, rat, and mouse).

CYP2C19 = biological target: T1, CYP2C19 (Homo sapiens, UniProt P33261); assay: CYP isoenzyme activity inhibition in human liver microsomes, CYP2C19; type: in vitro ADME; details: 10 µM compound; human liver microsomes 0.25 mg/mL; relative to control without compound
T1 construct: human liver microsomes (0.25 mg/mL); from tissue; host or cells: human liver microsomes
Description: (§1) The CYP isoenzyme activity inhibitory effect by the compounds prepared according to Examples 1 to 46 was confirmed. Specifically, human liver microsomes (0.25 mg/mL), 0.1 M phosphate buffer solution (pH 7.4), a substrate drug cocktail of five drug metabolizing enzymes (Phenacetin 50 µM, Diclofenac 10 µM, S-mephenytoin 100 µM, Dextromethorphan 5 µM, and Midazolam 2.5 µM), and the compounds were added at concentrations of 0 or 10 µM, respectively, and pre-incubated at 37°C for 5 minutes, and then NADPH generation system solution was added and incubated at 37°C for an additional 15 minutes. Thereafter, an acetonitrile solution containing an internal standard (Terfenadine) was added to terminate the reaction, and after centrifugation for 5 minutes (14,000 rpm, 4°C), the supernatant was injected into an LC-MS/MS system to simultaneously analyze the metabolites of the substrate drugs, thereby evaluating the drug metabolizing enzyme inhibitory activity.
(§2) The metabolites of each CYP isoenzyme marker drug generated through the reaction were analyzed using a Shimadzu Nexera XR system and TSQ vantage (Thermo). A Kinetex C18 (2.1 × 100 mm, 2.6 µm, particle size; Phenomenex, USA) was used as the HPLC column, and (A) distilled water containing 0.1% formic acid and (B) acetonitrile containing 0.1% formic acid were used as mobile phases, and a gradient program as shown in Table 6 below was applied.
(§3) The generated metabolites were quantified using MRM (Multiple Reaction Monitoring) quantitative mode, and Xcalibur (version 1.6.1) was used for data analysis. To show the CYP isoenzyme activity inhibitory effect of the novel compounds prepared according to the Examples of the disclosure, the % activity of CYP isoenzymes relative to the control group without compound addition is shown in Table 6 below. Additionally, to confirm the difference in effect according to substituents, Comparative Compounds 1 and 5, which are two compounds that share a similar parent nucleus structure with Compounds 1 to 46 of the disclosure while Cy is substituted with aromatic heteroaryl instead of saturated heterocyclyl, were selected as comparative compounds and their activities are shown together.

tau = biological target: T2, tau (Homo sapiens, UniProt P10636, P618L); assay: AT8 (pS202/T205) phospho-tau immunofluorescence of brain tissue; type: in vivo; details: TauP301L-BiFC mice; oral 10 mg/kg, 19 weeks; vehicle = 100%
T2 construct: BiFC fluorescent-protein fragments (two complementary halves); from tissue; host or cells: brain of TauP301L-BiFC transgenic mice
Description: After oral administration of Compounds 6, 16, and 20 and completion of behavioral experiments, 13.2-month-old TauP301L-BiFC mice were sacrificed to proceed with brain tissue extraction and [2] brain lysate separation and purification. • [1] First, brain tissue extraction, BiFC fluorescence imaging of brain tissue, and tau phosphorylation antibody immunofluorescence were performed through the following process. TauP301L-BiFC mice were perfused with 0.9% saline and fixed with PBS (pH 7.4) solution containing 4% paraformaldehyde. The brain was extracted and fixed in PBS containing 4% paraformaldehyde at 4°C for 48 to 72 hours. For cryoprotection, the brain was transferred to PBS containing 30% sucrose solution and stored at 4°C until it sank. For frozen sectioning, the brain was immersed in O.C.T (Tissue-TEK) and frozen, and then continuously cut using a brain tissue sectioner. Tissue sections with a thickness of 30 µm were stored in PBS containing 0.05% sodium azide at 4°C.
To measure not only tau oligomer formation but also the degree of tau phosphorylation observed in the tau pathology process, immunofluorescence staining using a tau phosphorylation antibody was performed. For brain tissue immunofluorescence image analysis, brain tissue slices (n=10 per group) were stained with AT8 (pS202/T205) antibody (1:200), and the primary antibody was detected using Alexa Fluor 633-labeled anti-mouse secondary antibody (1:500). Fluorescence images (λex=620-640 nm and λem=650-700 nm) were acquired using Axio Scan.Z1 (ZEISS).
The AT8 fluorescence imaging results of a total of two brain tissue regions (hippocampus (CA1), somatosensory cortex) were as follows: • (1) Hippocampus (CA1), vehicle = 100%, #20= 72%, p<0.01, #6= 81%, p<0.05, #16= 76%, p<0.01. • (2) Sensory cortex (SCTX), vehicle = 100%, #20= 54%, p<0.0001, #6= 63%, p<0.001, #16= 57%, p<0.0001.

CYP1A2 = biological target: T3, CYP1A2 (Homo sapiens, UniProt P05177); assay: CYP isoenzyme activity inhibition in human liver microsomes, CYP1A2; type: in vitro ADME; details: 10 µM compound; human liver microsomes 0.25 mg/mL; relative to control without compound
T3 construct: human liver microsomes (0.25 mg/mL); from tissue; host or cells: human liver microsomes
T3 sequence (P05177 1-516): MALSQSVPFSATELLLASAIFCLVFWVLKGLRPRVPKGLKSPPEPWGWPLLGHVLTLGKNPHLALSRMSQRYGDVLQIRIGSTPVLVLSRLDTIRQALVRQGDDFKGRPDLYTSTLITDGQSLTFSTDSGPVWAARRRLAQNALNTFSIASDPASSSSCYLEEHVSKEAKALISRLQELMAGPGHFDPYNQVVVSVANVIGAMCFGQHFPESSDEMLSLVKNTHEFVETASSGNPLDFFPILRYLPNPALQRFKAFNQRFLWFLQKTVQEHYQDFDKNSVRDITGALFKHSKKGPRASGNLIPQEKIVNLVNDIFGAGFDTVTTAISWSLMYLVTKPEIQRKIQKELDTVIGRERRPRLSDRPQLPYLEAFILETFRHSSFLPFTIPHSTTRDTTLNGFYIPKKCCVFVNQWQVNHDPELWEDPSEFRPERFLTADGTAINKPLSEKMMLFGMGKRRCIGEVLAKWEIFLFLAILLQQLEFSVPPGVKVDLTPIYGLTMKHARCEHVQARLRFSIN
Description: as §1, §2, §3

T1 sequence (P33261 whole entry): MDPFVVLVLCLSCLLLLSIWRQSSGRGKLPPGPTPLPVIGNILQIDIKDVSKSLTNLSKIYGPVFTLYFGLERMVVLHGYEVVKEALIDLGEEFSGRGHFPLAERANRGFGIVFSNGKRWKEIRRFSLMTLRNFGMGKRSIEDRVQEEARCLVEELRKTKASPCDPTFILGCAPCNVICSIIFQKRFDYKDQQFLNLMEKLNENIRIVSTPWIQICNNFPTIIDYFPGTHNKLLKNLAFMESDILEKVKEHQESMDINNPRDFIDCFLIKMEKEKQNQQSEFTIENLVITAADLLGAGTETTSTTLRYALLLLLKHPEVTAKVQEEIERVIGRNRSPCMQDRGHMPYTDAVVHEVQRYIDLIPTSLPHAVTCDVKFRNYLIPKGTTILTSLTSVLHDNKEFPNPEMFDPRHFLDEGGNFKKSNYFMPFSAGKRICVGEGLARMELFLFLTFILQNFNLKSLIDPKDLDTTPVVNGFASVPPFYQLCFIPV
T2 sequence (P10636 1-441 isoform P10636-8 P301L): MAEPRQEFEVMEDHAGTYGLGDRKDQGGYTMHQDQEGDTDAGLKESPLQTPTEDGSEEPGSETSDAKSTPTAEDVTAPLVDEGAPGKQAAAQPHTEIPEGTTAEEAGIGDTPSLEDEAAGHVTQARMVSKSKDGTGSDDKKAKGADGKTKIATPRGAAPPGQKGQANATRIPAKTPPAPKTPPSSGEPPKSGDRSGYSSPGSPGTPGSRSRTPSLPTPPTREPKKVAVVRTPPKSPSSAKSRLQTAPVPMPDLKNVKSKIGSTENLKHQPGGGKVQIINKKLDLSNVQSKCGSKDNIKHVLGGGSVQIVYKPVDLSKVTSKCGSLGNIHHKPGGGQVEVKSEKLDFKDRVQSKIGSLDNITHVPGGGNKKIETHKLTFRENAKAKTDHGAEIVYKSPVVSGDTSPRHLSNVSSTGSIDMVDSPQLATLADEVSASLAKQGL

| SMILES | Rat microsomes (% remaining) [1] [% remaining] | CYP2C19 (% activity) (CYP2C19) | AT8 fluorescence, Hippocampus (CA1) (tau) [%] | AT8 fluorescence, Sensory cortex (SCTX) (tau) [%] | CYP1A2 (% activity) (CYP1A2) |
| --- | --- | --- | --- | --- | --- |
| N#CC(C#N)=NNc1ccc2nc(N3C4CCC3COC4)oc2c1 [Compound 20, (2-(3-oxa-8-azabicyclo[3.2.1]octan-8-yl)benzo[d]oxazol-6-yl)carbonohydrazonoyl dicyanide] | 82.9 | 51.8 | 72 | 54 | 55.6 |
| CC1CN(C(=O)Nc2nc3ccc(NN=C(C#N)C#N)cc3s2)CC(C)O1 (stereo not drawn) [Compound 39, (2-(2,6-dimethylmorpholine-4-carboxamido)benzo[d]thiazol-6-yl)carbonohydrazonoyl dicyanide] | 82.3 | 78.6 |  |  | 84 |
| N#CC(C#N)=NNc1ccc2nc(N3CCOCC3)sc2c1 [Compound 2, (2-morpholinobenzo[d]thiazol-6-yl)carbonohydrazonoyl dicyanide] | 55.2 | 96.7 |  |  | 81.7 |
| COC1CCN(c2nc3ccc(NN=C(C#N)C#N)cc3s2)CC1 [Compound 9, (2-(4-methoxypiperidin-1-yl)benzo[d]thiazol-6-yl)carbonohydrazonoyl dicyanide] | 17.7 | 86.9 |  |  | 68.9 |
| Cn1c(N2CCOCC2)nc2cc(NN=C(C#N)C#N)ccc21 [Compound 6, (1-methyl-2-morpholino-1H-benzo[d]imidazol-5-yl)carbonohydrazonoyl dicyanide] | 66.1 | 98.4 | 81 | 63 | 92.3 |
| Cn1c(N2CCOCC2)nc2ccc(NN=C(C#N)C#N)cc21 [Compound 5, (1-methyl-2-morpholino-1H-benzo[d]imidazol-6-yl)carbonohydrazonoyl dicyanide] | 77.8 | 90.2 |  |  | 84.3 |
| CC(=O)N1CCN(c2nc3ccc(NN=C(C#N)C#N)cc3s2)CC1 [Compound 30, (2-(4-acetylpiperazin-1-yl)benzo[d]thiazol-6-yl)carbonohydrazonoyl dicyanide] | 91.9 | 86.2 |  |  | 88.9 |
| CC1COCCN1c1nc2ccc(NN=C(C#N)C#N)cc2o1 (stereo not drawn) [Compound 16, (2-(3-methylmorpholino)benzo[d]oxazol-6-yl)carbonohydrazonoyl dicyanide] | 49.6 | > 100 | 76 | 57 | 99.9 |
| N#CC(C#N)=NNc1ccc2nc(N3CC4CCC(C3)O4)sc2c1 [Compound 23, (2-(8-oxa-3-azabicyclo[3.2.1]octan-3-yl)benzo[d]thiazol-6-yl)carbonohydrazonoyl dicyanide] | 69.8 | 69.6 |  |  | 70.6 |
| CC1CN(c2nc3ccc(NN=C(C#N)C#N)cc3o2)CCO1 (stereo not drawn) [Compound 15, (2-(2-methylmorpholino)benzo[d]oxazol-6-yl)carbonohydrazonoyl dicyanide] | 60 | 87.9 |  |  | 80.2 |
| CCn1c(N2CCOCC2)nc2ccc(NN=C(C#N)C#N)cc21 [Compound 32, (1-ethyl-2-morpholino-1H-benzo[d]imidazol-6-yl)carbonohydrazonoyl dicyanide] | 81.7 | 77.1 |  |  | 78.9 |
| CN1CCN(c2nc3ccc(NN=C(C#N)C#N)cc3s2)CC1 [Compound 8, (2-(4-methylpiperazin-1-yl)benzo[d]thiazol-6-yl)carbonohydrazonoyl dicyanide] | 76.6 | > 100 |  |  | 91.8 |
| N#CC(C#N)=NNc1ccc2sc(N3CCOCC3)nc2c1 [Compound 1, (2-morpholinobenzo[d]thiazol-5-yl)carbonohydrazonoyl dicyanide] | 2.1 | > 100 |  |  | 80.2 |
